What was measured:
[1] = target: T1, 50S ribosomal protein rplB (Staphylococcus aureus, UniProt P60430); assay: microscale thermophoresis; also thermal shift of pure protein and competition with Sof-P labeling; format: binding
T1 construct: purified recombinant S. aureus rplB protein (His-Tag labeled)

[2] = target: T2, 50S ribosomal protein rplB (Staphylococcus aureus, UniProt P60430); assay: in-gel fluorescence covalent labeling of purified recombinant protein (click chemistry), competed by Sof and IAA; format: binding
T2 construct: purified recombinant rplB protein
T2 sequence (P60430 1-277): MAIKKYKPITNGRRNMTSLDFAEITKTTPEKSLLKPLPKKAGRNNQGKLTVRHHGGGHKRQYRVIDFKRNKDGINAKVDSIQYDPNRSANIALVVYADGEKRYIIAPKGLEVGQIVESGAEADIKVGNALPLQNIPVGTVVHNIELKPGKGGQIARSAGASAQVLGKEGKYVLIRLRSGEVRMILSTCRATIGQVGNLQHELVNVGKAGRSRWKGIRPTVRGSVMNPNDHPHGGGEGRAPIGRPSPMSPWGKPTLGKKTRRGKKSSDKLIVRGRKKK

Structure (SMILES)	Kd [1]	in-gel fluorescence covalent labeling of purified recombinant protein (click che) [2]
CC(C)=CCOc1ccc(/C=C/C(=O)c2ccc(OCC=C(C)C)cc2OCC(=O)O)cc1 [Sof, 2′-carboxymethoxy-4,4′-bis(3-methyl-2-butenyloxy) chalcone]	1270 nM	–
C#CCNC(=O)COc1cc(OCC=C(C)C)ccc1C(=O)/C=C/c1ccc(OCC=C(C)C)cc1 [Sof-P]	–	Sof-P labeling of recombinant rplB was concentration-dependent and was effectively competed by excess Sof or iodoacetamide (IAA)
